The record followed here is ChEMBL document CHEMBL1138706, “Synthesis and biological evaluation of novel taxoids designed for targeted delivery to tumors” (Bioorg Med Chem Lett, 2004).

For assay [1], the system named is MCF7. The assay can be described thus: inhibitory concentration against the growth of breast cancer MCF-7 cell line after 72 hr of exposure. Format: functional, cell-based. Conditions: Homo sapiens, MCF7, 72 h.
The subject of assay [2] is A549. The assay can be described thus: inhibitory concentration against the growth of Non-small-cell lung carcinoma A549 cell line after 72 hr of exposure. Format: functional, cell-based. Conditions: Homo sapiens, A549, 72 h.

What is called IC50 is the concentration that inhibits the measured activity by half. Lower therefore signals higher potency. For the compound `CCCCOC(=O)N[C@@H](c1cccs1)[C@@H](O)C(=O)O[C@H]1C[C@@]2(O)[C@@H](OC(=O)c3cc(OC)ccc3OC)[C@@H]3[C@]4(OC(C)=O)CO[C@@H]4C[C@H](O)[C@@]3(C)C(=O)[C@H](OC(C)=O)C(=C1C)C2(C)C`, the IC50 in assay [1] and in assay [2] was 40 nM each time.

For the compound `COc1ccc(OC)c(C(=O)O[C@H]2[C@@H]3[C@]4(OC(C)=O)CO[C@@H]4C[C@H](O)[C@@]3(C)C(=O)[C@H](OC(C)=O)C3=C(C)[C@@H](OC(=O)[C@H](O)[C@@H](NC(=O)c4ccco4)c4ccco4)C[C@]2(O)C3(C)C)c1`, the results for the IC50 in assay [1] and in assay [2] were 120 nM and 90 nM, respectively.

In the case of `CCCCOC(=O)N[C@@H](C=C(C)C)[C@@H](O)C(=O)O[C@H]1C[C@@]2(O)[C@@H](OC(=O)c3cc(OC)ccc3OC)[C@@H]3[C@]4(OC(C)=O)CO[C@@H]4C[C@H](O)[C@@]3(C)C(=O)[C@H](OC(C)=O)C(=C1C)C2(C)C`, the results for the IC50 in assay [1] and in assay [2] were 30 nM and 40 nM, respectively.

In the case of `COc1ccc(OC)c(C(=O)O[C@H]2[C@@H]3[C@]4(OC(C)=O)CO[C@@H]4C[C@H](O)[C@@]3(C)C(=O)[C@H](OC(C)=O)C3=C(C)[C@@H](OC(=O)[C@H](O)[C@@H](NC(=O)c4ccccc4)c4cccs4)C[C@]2(O)C3(C)C)c1`, the IC50 in assay [1] and in assay [2] was above 3000 nM in each case.

On to `COc1ccc(OC)c(C(=O)O[C@H]2[C@@H]3[C@]4(OC(C)=O)CO[C@@H]4C[C@H](O)[C@@]3(C)C(=O)[C@H](OC(C)=O)C3=C(C)[C@@H](OC(=O)[C@H](O)[C@H](C=C(C)C)NC(=O)c4cccs4)C[C@]2(O)C3(C)C)c1`, for which the results for the IC50 in assay [1] and in assay [2] were 30 nM and 40 nM, respectively.

Take `CCCCOC(=O)N[C@@H](c1ccco1)[C@@H](O)C(=O)O[C@H]1C[C@@]2(O)[C@@H](OC(=O)c3cc(OC)ccc3OC)[C@@H]3[C@]4(OC(C)=O)CO[C@@H]4C[C@H](O)[C@@]3(C)C(=O)[C@H](OC(C)=O)C(=C1C)C2(C)C`: the IC50 in assay [1] and in assay [2] was 30 nM each time.

On to `COc1ccc(OC)c(C(=O)O[C@H]2[C@@H]3[C@]4(OC(C)=O)CO[C@@H]4C[C@H](O)[C@@]3(C)C(=O)[C@H](OC(C)=O)C3=C(C)[C@@H](OC(=O)[C@H](O)[C@@H](NC(=O)c4cccs4)c4cccs4)C[C@]2(O)C3(C)C)c1`, for which the half-maximal inhibitory concentration (IC50) in assay [1] and in assay [2] was 30 nM throughout.

With `COc1ccc(OC)c(C(=O)O[C@H]2[C@@H]3[C@]4(OC(C)=O)CO[C@@H]4C[C@H](O)[C@@]3(C)C(=O)[C@H](OC(C)=O)C3=C(C)[C@@H](OC(=O)[C@H](O)[C@@H](NC(=O)OC(C)(C)C)c4cccs4)C[C@]2(O)C3(C)C)c1`, the IC50 in assay [1] and in assay [2] was 30 nM each time.

For the compound `COc1ccc(OC)c(C(=O)O[C@H]2[C@@H]3[C@]4(OC(C)=O)CO[C@@H]4C[C@H](O)[C@@]3(C)C(=O)[C@H](OC(C)=O)C3=C(C)[C@@H](OC(=O)[C@H](O)[C@@H](NC(=O)c4ccccc4)c4ccccc4)C[C@]2(O)C3(C)C)c1`, the results for the IC50 in assay [1] and in assay [2] were 30 nM and 130 nM, respectively.

Regarding `COc1ccc(OC)c(C(=O)O[C@H]2[C@@H]3[C@]4(OC(C)=O)CO[C@@H]4C[C@H](O)[C@@]3(C)C(=O)[C@H](OC(C)=O)C3=C(C)[C@@H](OC(=O)[C@H](O)[C@@H](NC(=O)c4cccs4)c4ccco4)C[C@]2(O)C3(C)C)c1`, the IC50 is 60 nM in assay [1] and 100 nM in assay [2].

Consider `C/C=C/C(=O)N[C@@H](C=C(C)C)[C@@H](O)C(=O)O[C@H]1C[C@@]2(O)[C@@H](OC(=O)c3cc(OC)ccc3OC)[C@@H]3[C@]4(OC(C)=O)CO[C@@H]4C[C@H](O)[C@@]3(C)C(=O)[C@H](OC(C)=O)C(=C1C)C2(C)C`, for which the values for the IC50 in assay [1] and in assay [2] were 10 nM and 30 nM, respectively.

For the compound `C/C=C/C(=O)N[C@@H](c1ccco1)[C@@H](O)C(=O)O[C@H]1C[C@@]2(O)[C@@H](OC(=O)c3cc(OC)ccc3OC)[C@@H]3[C@]4(OC(C)=O)CO[C@@H]4C[C@H](O)[C@@]3(C)C(=O)[C@H](OC(C)=O)C(=C1C)C2(C)C`, the IC50 in assay [1] stood at 130 nM; in assay [2], 160 nM.

In the case of `COc1ccc(OC)c(C(=O)O[C@H]2[C@@H]3[C@]4(OC(C)=O)CO[C@@H]4C[C@H](O)[C@@]3(C)C(=O)[C@H](OC(C)=O)C3=C(C)[C@@H](OC(=O)[C@H](O)[C@H](C=C(C)C)NC(=O)c4ccccc4)C[C@]2(O)C3(C)C)c1`, the IC50 in assay [1] and in assay [2] was 40 nM in each case.

In the case of `COc1ccc(OC)c(C(=O)O[C@H]2[C@@H]3[C@]4(OC(C)=O)CO[C@@H]4C[C@H](O)[C@@]3(C)C(=O)[C@H](OC(C)=O)C3=C(C)[C@@H](OC(=O)[C@H](O)[C@@H](NC(=O)c4ccccc4)c4ccco4)C[C@]2(O)C3(C)C)c1`, the figures for the IC50 in assay [1] and in assay [2] were 210 nM and 220 nM, respectively.

For the compound `COc1ccc(OC)c(C(=O)O[C@H]2[C@@H]3[C@]4(OC(C)=O)CO[C@@H]4C[C@H](O)[C@@]3(C)C(=O)[C@H](OC(C)=O)C3=C(C)[C@@H](OC(=O)[C@H](O)[C@@H](NC(=O)C=C(C)C)c4ccco4)C[C@]2(O)C3(C)C)c1`, the IC50 in assay [1] turned out to be 40 nM; in assay [2], 30 nM.

As to `COc1ccc(OC)c(C(=O)O[C@H]2[C@@H]3[C@]4(OC(C)=O)CO[C@@H]4C[C@H](O)[C@@]3(C)C(=O)[C@H](OC(C)=O)C3=C(C)[C@@H](OC(=O)[C@H](O)[C@H](C=C(C)C)NC(=O)OC(C)(C)C)C[C@]2(O)C3(C)C)c1`, the IC50 in assay [1] and in assay [2] was 40 nM throughout.

With `COc1ccc(OC)c(C(=O)O[C@H]2[C@@H]3[C@]4(OC(C)=O)CO[C@@H]4C[C@H](O)[C@@]3(C)C(=O)[C@H](OC(C)=O)C3=C(C)[C@@H](OC(=O)[C@H](O)[C@H](C=C(C)C)NC(=O)c4ccco4)C[C@]2(O)C3(C)C)c1`, the IC50 in assay [1] turned out to be 30 nM; in assay [2], 60 nM.

In the case of `COc1ccc(OC)c(C(=O)O[C@H]2[C@@H]3[C@]4(OC(C)=O)CO[C@@H]4C[C@H](O)[C@@]3(C)C(=O)[C@H](OC(C)=O)C3=C(C)[C@@H](OC(=O)[C@H](O)[C@@H](NC(=O)c4ccco4)c4cccs4)C[C@]2(O)C3(C)C)c1`, the IC50 came to 60 nM in assay [1] and 50 nM in assay [2].

With `COc1ccc(OC)c(C(=O)O[C@H]2[C@@H]3[C@]4(OC(C)=O)CO[C@@H]4C[C@H](O)[C@@]3(C)C(=O)[C@H](OC(C)=O)C3=C(C)[C@@H](OC(=O)[C@H](O)[C@H](C=C(C)C)NC(=O)C=C(C)C)C[C@]2(O)C3(C)C)c1`, the IC50 in assay [1] and in assay [2] was 20 nM each time.

Consider `COc1ccc(OC)c(C(=O)O[C@H]2[C@@H]3[C@]4(OC(C)=O)CO[C@@H]4C[C@H](O)[C@@]3(C)C(=O)[C@H](OC(C)=O)C3=C(C)[C@@H](OC(=O)[C@H](O)[C@@H](NC(=O)C=C(C)C)c4cccs4)C[C@]2(O)C3(C)C)c1`, for which the IC50 in assay [1] worked out at 50 nM; in assay [2] it was 40 nM.

Turning to `C/C=C/C(=O)N[C@@H](c1cccs1)[C@@H](O)C(=O)O[C@H]1C[C@@]2(O)[C@@H](OC(=O)c3cc(OC)ccc3OC)[C@@H]3[C@]4(OC(C)=O)CO[C@@H]4C[C@H](O)[C@@]3(C)C(=O)[C@H](OC(C)=O)C(=C1C)C2(C)C`, the results for the IC50 in assay [1] and in assay [2] were 160 nM and 180 nM, respectively.

Turning to `COc1ccc(OC)c(C(=O)O[C@H]2[C@@H]3[C@]4(OC(C)=O)CO[C@@H]4C[C@H](O)[C@@]3(C)C(=O)[C@H](OC(C)=O)C3=C(C)[C@@H](OC(=O)[C@H](O)[C@@H](NC(=O)OC(C)(C)C)c4ccccc4)C[C@]2(O)C3(C)C)c1`, the IC50 in assay [1] is 60 nM; in assay [2], 50 nM.

On to `COc1ccc(OC)c(C(=O)O[C@H]2[C@@H]3[C@]4(OC(C)=O)CO[C@@H]4C[C@H](O)[C@@]3(C)C(=O)[C@H](OC(C)=O)C3=C(C)[C@@H](OC(=O)[C@H](O)[C@@H](NC(=O)OC(C)(C)C)c4ccco4)C[C@]2(O)C3(C)C)c1`, for which the IC50 in assay [1] amounted to 40 nM; in assay [2], 30 nM.

As to `CC(=O)O[C@@]12CO[C@@H]1C[C@H](O)[C@@]1(C)C(=O)[C@H](O)C3=C(C)[C@@H](OC(=O)[C@H](O)[C@@H](NC(=O)OC(C)(C)C)c4ccccc4)C[C@@](O)([C@@H](OC(=O)c4ccccc4)[C@H]21)C3(C)C` [DOCETAXEL], the IC50 in assay [1] and in assay [2] was 1000 nM in each case.

Take `CC(=O)O[C@H]1C(=O)[C@@]2(C)[C@H]([C@H](OC(=O)c3ccccc3)[C@]3(O)C[C@H](OC(=O)[C@H](O)[C@@H](NC(=O)c4ccccc4)c4ccccc4)C(C)=C1C3(C)C)[C@]1(OC(C)=O)CO[C@@H]1C[C@@H]2O` [PACLITAXEL]: the figures for the IC50 in assay [1] and in assay [2] were 800 nM and 1700 nM, respectively.
